Laboratory results reported in patent publication US20240174697A1, “PH-ACTIVABLE FLUORESCENT PROBES FOR TARGETING CELL ORGANELLES” (Purdue Research Foundation, priority 2021, published 2024).
“Also recorded” adds a separate entry of the source.

Tests used:
[1] = Absorption and fluorescence spectra at different pH solutions, pKa; format: physicochemical; details: in a mixture of DMSO: acetonitrile
[2] = Solubility in aqueous medium / pH solutions; format: physicochemical
primary mouse microglia [3] = experiment: Confocal imaging, localization of probes in primary microglia; format: cell-based; details: 10 μM probe 2 hours, co-staining LysoTracker / MitoLite / DAPI
Description: A detailed protocol for the isolation and culture of primary microglia from adult mouse brains is previously described^2. Briefly, CD11^+ primary microglia were isolated from adult C57BL/6 mice aged 5-7 months of age (both male and female sexes) and cultured as follows. Mice were euthanized with CO2 following the PACUC guidelines, perfused brains were removed and cut into small pieces before homogenizing them in DPBS++with 0.4% DNase-I on the tissue dissociator at 37° C. After filtering the cells through a 70 μm filter, myelin was removed two times, first using gradient centrifugation with Percoll PLUS reagent followed by the use of myelin removal beads on the magnetic column separators. After myelin removal, CD11^+ cells were selected from the single cell suspension using the CD11^+ beads as per the manufacturer's instructions. The CD11^+ cells were finally resuspended in microglia growth media, further diluted in TIC (TGF-β, IL-34, and cholesterol containing) media containing 2% FBS before seeding 0.1×10^6 cells/500 μL/well of a 24-well plate. The cells were maintained at 37° C. and 10% CO2 with half-media change every other day until the day of compound treatment (around 12-14 div). For confocal imaging experiments, around 50,000 cells/2 mL cells were sub-cultured at the center of 35 mm glass-bottom imaging dishes (FluoroDish™ #FD35).
The localization of the fluorescent probes was visualized using confocal microscopy. The cells were incubated with 10 μM probe for 2 hours and then the media was aspirated. The cells were then incubated with 100 nM LysoTracker (1 mM stock from Thermo #L7528) or with 0.5x MitoLite (1000-fold dilution from 500x stock of AAT Bioquest #22678) for 1.5 hours. The media was aspirated, and the cells were fixed with 4% paraformaldehyde for 10 mins followed by nuclear staining with 1 μM/mL DAPI for 5 mins. For BV2 microglia grown on glass coverslips, the coverslips were removed from the wells and transferred to glass slides with a drop of anti-fade reagent (Thermo Fisher Scientific #P36930). […]

primary mouse microglia [4] = experiment: Flow cytometry analysis of probe fluorescence in live cells; format: cell-based; details: co-staining with MitoLite dye
Description: FIGS. 3A-3E. […] Modal corresponds to a percentage of the maximum count. […] US Ctrl is unstained control. Gating strategy and flow plots with commercial dyes in supporting information.
A detailed protocol for the isolation and culture of primary microglia from adult mouse brains is previously described^2. Briefly, CD11^+ primary microglia were isolated from adult C57BL/6 mice aged 5-7 months of age (both male and female sexes) and cultured as follows. Mice were euthanized with CO2 following the PACUC guidelines, perfused brains were removed and cut into small pieces before homogenizing them in DPBS++with 0.4% DNase-I on the tissue dissociator at 37° C. After filtering the cells through a 70 μm filter, myelin was removed two times, first using gradient centrifugation with Percoll PLUS reagent followed by the use of myelin removal beads on the magnetic column separators. After myelin removal, CD11^+ cells were selected from the single cell suspension using the CD11^+ beads as per the manufacturer's instructions. […]
Primary mouse microglia were treated with 1, 5, or 10 μM fluorescent probes for 2 hours for the cells to uptake the probe. […] Around 10-20 thousand cells were gated from the live cells in order to analyze the cellular fluorescence signal corresponding to the LysoShine/Lysotracker or Mitoshine/MitoLite probes.

BV2 microglia [5] = experiment: LDH cytotoxicity assay on BV2 microglia; format: cell-based, mouse; details: BV2
Description: (§1) The dried fluorescent probes powders were resuspended in cell grade DMSO to prepare 5 mM stock solutions. This stock was used to make a 1, 5, or 10 μM dilution of the probe in cell culture media. The diluted probe solutions were filtered through 0.22 µm filters before adding to the cells.
The cytotoxicity of the fluorescent probes was determined using the Invitrogen™ CyQUANT™ LDH Cytotoxicity Assay kit which measures the release of Lactate dehydrogenase (LDH) from the dead and dying cells. The assay was performed per the manufacturer's protocol. Briefly, BV2 cells (5000 cells/100 μL/well) were seeded in a 96 well plate and cultured for 24 hours at 37° C. in a 5% CO2 incubator. After 24 hours, the media was removed, and the cells were treated with 1, 5, or 10 μM of the probes for 2 or 24 hours of incubation. Three additional wells were treated with the given lysis buffer for 45 minutes (positive control). After the corresponding incubation period, the total LDH release was measured using a fluorescent plate reader. The cells without any probe treatment correspond to spontaneous LDH release and were taken as negative control and the cells treated with the lysis buffer correspond to maximum LDH release. The percentage cytotoxicity of the probes was determined as follows: […]

BV2 microglia [6] = experiment: MTT assay, metabolic activity of BV2 microglia; format: cell-based, mouse; details: 24 hours
Description: as §1
Murine microglial BV2 cells (10,000 cells/well) were seeded in a 96 well plate and cultured for 24 hours at 37° C. in a 5% CO2 incubator. Next day, the media was aspirated, and the cells were rinsed twice with PBS (pH 7.4) followed by treatment with 1, 5, or 10 μM of the probe solution made in DMSO (final DMSO concentration=0.05%) for 24 hours in the incubator. Next, the media was aspirated and 20 μL of 5 mg/mL 3-(4,5dimethylthiazol-2-yl)-2,5-diphenyltetrazolium bromide (MTT) solution was added to the cells and then incubated for three hours. The MTT solution was then removed and 100 μL DMSO was added to dissolve the violet formazan crystals. The plate was shaken for 5 minutes using an orbital shaker. The absorbance value at 450 nm was recorded and the percent cell metabolic activity was calculated as the ratio of sample absorbance to control absorbance.

[7] = Absorption and fluorescence spectra at different pH solutions, pKa; format: physicochemical
Description: Spectrum recorded at room temperature in PBS buffer at varying pH with 1% (v/v) of DMSO, in all cases probe concentration=10 μM.
Next, we investigated the absorption and fluorescent properties of LysoShine 1, LysoShine 2, and MitoShine (FIG. 2). The LysoShine 1 in different pH solutions of phosphate buffer (1% DMSO in 1M PBS) has an absorption centered around 500 nm and emission maximum at 505 nm with 480 nm excitation. […] We tested the mitochondrial targeting property of MitoShine (max. absorption 505 nm, max. emission 535 nm, excitation 480 nm). […] We also tested the photophysical property of the important synthetic intermediate compound 10 (absorption maximum 505 nm, max, emission 510 nm at excitation 480 nm).

BV2 microglia [8] = experiment: Cellular uptake of the fluorescent probes; format: in vitro ADME, mouse; details: 2 hour treatment, 10 μM, BV2
Description: FIG. 7 describes percent uptake efficiency of the fluorescent probes in BV2 microglia. Cellular uptake of the probe at different concentrations after two hours of incubation. The % uptake efficiency was determined as the percentage of probe taken up by cells out of the total amount of probe in the initial incubation solution. Bars depict n=3 data with SD.
Cellular uptake of the florescent probes was determined in-vitro as following: BV2 cells (20,000 cells/well) were seeded in a 96 well plate and cultured overnight at 37° C. in a 5% CO2 incubator. Next day, the media was removed, and the cells were treated with 1, 5, or 10 μM of the probes for 2 hours. After incubation, the supernatant was collected, and the absorbance was recorded at the respective absorbance maxima of the probe. This was compared with absorbance of the probe in media without cells. The percent cellular uptake was calculated as percentage of […]:
% Uptake Efficiency=1-[Asupernatant×100/Aprobe]

Compound | pH at which significant fluorescence is shown [1] | solubility in aqueous medium ([2]; aqueous medium) | solubility in DMSO: acetonitrile ([2]; mixture of DMSO: acetonitrile) | localization of the probe within cell organelles (primary mouse microglia [3]) | live cells positive for probe and MitoLite (primary mouse microglia [4]) | cytotoxicity (LDH release) (BV2 microglia [5]; 2 hour, 1 and 5 μM) | cytotoxicity (LDH release) (BV2 microglia [5]; 24 hours, 10 μM and 5 μM) | cellular metabolic activity (BV2 microglia [6]; 1 μM) | cellular metabolic activity (BV2 microglia [6]; 5 μM or higher) [%] | solubility upon addition of pH solutions ([2]; final DMSO concentration 1%) | pKa ([7]; PBS buffer at varying pH, 1% (v/v) DMSO, probe 10 μM, room temperature) | emission maximum ([7]; excitation 480 nm, pH solutions of phosphate buffer, 1% DMSO) [nm] | pH at which high fluorescence is shown ([7]; pH buffer solutions) | absorption maximum ([7]; pH solutions of phosphate buffer, 1% DMSO) [nm] | uptake efficiency (BV2 microglia [8]) [%]
CCOC(=O)C1=C(C)C2=C(c3ccc(N(C)C)cc3)c3c(C)c(C(=O)OCC)c(C=Cc4ccc(O)c([N+](=O)[O-])c4)n3[B-](F)(F)[N+]2=C1C [Compound 6b, Diethyl (E)-10-(4-(Dimethylamino)phenyl)-5,5-difluoro-3-(4-hydroxy-3-nitrostyryl)-1,7,9-trimethyl-5H-414,514-dipyrrolo[1,2-c:2′,1′-f][1,3,2]diazaborinine-2,8-dicarboxylate] | less than 6 | sparingly soluble | soluble |  |  |  |  |  |  |  |  |  |  |  | 
CCOC(=O)C1=C(C)C2=C(c3ccc(NC(=O)C[P+](c4ccccc4)(c4ccccc4)c4ccccc4)cc3)c3c(C)c(C(=O)OCC)c(C)n3[B-](F)(F)[N+]2=C1C.[Br-] [MitoShine, (2-((4-(2,8-bis(ethoxycarbonyl)-5,5-difluoro-1,3,7,9-tetramethyl-5H-414,514-dipyrrolo[1,2-c:2′, 1′-f][1,3,2]diazaborinin-10-yl)phenyl)amino)-2-oxoethyl)triphenylphosphonium bromide] |  |  |  | co-localized with MitoLite; also recorded: colocalization of MitoShine in both mitochondrial as well as in lysosomal organelles | around 87% | no cytotoxicity | around 20% | high cellular metabolic activity | 10 | maintains its solubility | 4.4 | 535 | 4 | 505 | 30
